Data published in patent US9359338B2, “Cyclopropanecarboxamido-substitute aromatic compounds as anti-tumor agents” (Crown Bioscience Inc. (Taiwan), priority 2012, dated 2016).
pIC50: −log10 of the molar value. Where two headings read alike, the source gives them in different places.

How the values were obtained:
PLC-PRF-5 cells = test: Inhibition of proliferation of PLC-PRF-5 cells (ATPlite); format: cell-based; conditions: Homo sapiens
Outline: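 PLC-PRF-5 cells in DMEM/10% FBS, seeded 2 h before compound; 8-point 3-fold dilutions from 30 μM final top, 0.3% DMSO. After 96 h at 37 °C, 5% CO2, ATP content read by ATPlite luminescence; IC50 calculated.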

B-Raf kinase = B-Raf kinase (Homo sapiens (Human), UniProt P15056); test: Inhibitory activity at B-Raf kinase (ADP-GLO assay); format: biochemical
Experimental: Inhibitory Activity of Compounds at B-Raf Kinase
• [Experimental method]: Use ADP-GLO™ assay kit from Promega to evaluate the inhibitory activity of compounds at B-Raf • [Instrument]: PerKinElmer's ENVISION plate reader • [Material]: Optiplate-384 well plate (PerKinElmer), kinase buffer (50 mM Hepes pH7.5, 1 mM EGTA, 2 mM DTT, 10 mM Mg^2+, 0.05% BSA), B-Raf kinase (Millipore, catalogue #14-530-K), GST-MEK1 substrate (Carna, catalogue #07-141-10), Super pure ATP (Promega), ADP-GLO™ assay kit (Promega, catalogue # V9102), DMSO (Sigma, catalogue #34869), purified water (Millipore, type: Milli-Q). • [Study conditions]: Mix B-Raf kinase (final concentration: 5 nM) and compound (DMSO final concentration: 0.25%) and preincubate at 30° C. for 20 min, then add ATP (final concentration: 6 μM) and reaction substrate (final concentration: 30 nM), React for 2 hrs at 30° C. After reaction, add ADP-GLO™ reagent, react for 40 min at room temperature, then add ADP-GLO™ detecting agent, react for 30 min at room temperature. After that, use ENVSION to measure the […]. • [Samples]: Compounds in the examples and Sorafenib (positive control) • [Data analysis]: Use CBIS data analysis software to calculate IC50 values

pERK in MDA-MB-231 cells = test: Inhibitory activity at pERK (In Cell Western, MDA-MB-231 cells); format: cell-based
Outline: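 MDA-MB-231 cells were treated 2 h at 37 °C with 8 compound concentrations in 3-fold dilutions from 30 μM top (0.3% DMSO, DMEM with 0.1% BSA). Cells were then fixed, methanol-permeabilized and immunostained for pERK with PI counterstain. Fluorescence was read on Acumen and IC50 calculated.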

KDR kinase (790-1356 AA) = KDR kinase (790-1356 AA) (Homo sapiens (Human), UniProt P35968); test: Inhibitory activity at KDR kinase (Lance Ultra Ulight-TK assay); format: biochemical
Outline: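 TR-FRET (Eu-anti-phosphotyrosine PT66) with 20 nM KDR preincubated with compound 20 min at 30 °C in HEPES pH 7.5 buffer with Mg2+/Mn2+, 0.5% DMSO.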

[1] = PLC-PRF-5, PLC-PRF-5 cells, read-out: PLC-PRF-5 cell proliferation IC50
[2] = Homo sapiens, MDA-MB-231, MDA-MB-231 cells, read-out: MDA-MB-231 pERK IC50

Sequence of KDR kinase (790-1356 AA) (P35968 790-1356): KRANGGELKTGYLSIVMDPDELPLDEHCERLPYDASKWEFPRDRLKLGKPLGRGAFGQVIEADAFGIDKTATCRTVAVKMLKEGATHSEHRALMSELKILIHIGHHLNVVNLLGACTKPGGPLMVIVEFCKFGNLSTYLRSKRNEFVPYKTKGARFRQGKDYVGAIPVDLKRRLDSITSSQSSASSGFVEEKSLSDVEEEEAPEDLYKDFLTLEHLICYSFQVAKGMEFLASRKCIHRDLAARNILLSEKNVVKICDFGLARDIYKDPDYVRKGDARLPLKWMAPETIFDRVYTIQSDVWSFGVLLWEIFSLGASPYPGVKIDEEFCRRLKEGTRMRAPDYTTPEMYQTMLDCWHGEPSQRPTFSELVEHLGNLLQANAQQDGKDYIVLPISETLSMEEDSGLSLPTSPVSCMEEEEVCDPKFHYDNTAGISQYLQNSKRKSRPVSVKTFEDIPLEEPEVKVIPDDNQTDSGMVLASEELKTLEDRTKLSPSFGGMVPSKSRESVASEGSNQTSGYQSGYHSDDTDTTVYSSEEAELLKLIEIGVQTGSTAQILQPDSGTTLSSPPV
Sequence of B-Raf kinase (P15056 416-766): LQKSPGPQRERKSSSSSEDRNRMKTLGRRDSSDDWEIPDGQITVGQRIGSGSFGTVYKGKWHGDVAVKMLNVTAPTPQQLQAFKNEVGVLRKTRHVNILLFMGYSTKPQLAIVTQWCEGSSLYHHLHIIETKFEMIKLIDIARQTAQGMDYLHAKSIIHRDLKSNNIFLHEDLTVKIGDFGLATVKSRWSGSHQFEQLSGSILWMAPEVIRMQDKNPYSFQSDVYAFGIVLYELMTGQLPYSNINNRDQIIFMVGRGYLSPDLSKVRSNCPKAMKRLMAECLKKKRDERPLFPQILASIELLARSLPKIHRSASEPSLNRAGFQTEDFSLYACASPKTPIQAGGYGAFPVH

pIC50 (B-Raf kinase) | pIC50 (pERK in MDA-MB-231 cells; [2]) | pIC50 (KDR kinase (790-1356 AA)) | pIC50 (pERK in MDA-MB-231 cells; MDA-MB-231 cells, read-out: MDA-MB-231 pERK IC50) | Compound | pIC50 (PLC-PRF-5 cells; [1]) | pIC50 (PLC-PRF-5 cells; PLC-PRF-5, read-out: PLC-PRF-5 cell proliferation IC50) | pIC50 (pERK in MDA-MB-231 cells; Homo sapiens, MDA-MB-231, read-out: MDA-MB-231 pERK IC50)
7.41 | 7.51 | 7.96 |  | Cc1cc(Oc2cc(NC(=O)C3CC3)ncn2)ccc1NC(=O)Nc1ccc(Cl)c(C(F)(F)F)c1 [Exe. 001, N-[6-[4-[[4-chloro-3-(trifluoromethyl)phenyl]carbamoylamino]-3-methyl-phenoxy]pyrimidin-4-yl]cyclopropanecarboxamide] | 5.16 |  | 
7.01 | 7.37 | 7.86 |  | Cc1cc(NC(=O)Nc2ccc(Cl)c(C(F)(F)F)c2)ccc1Oc1cc(NC(=O)C2CC2)ncn1 [Exe. 010] | 5.36 |  | 
7.80 | 7.73 | 7.53 |  | Cc1cc(NC(=O)Nc2ccc(Cl)c(C(F)(F)F)c2)cnc1Oc1ccnc(NC(=O)C2CC2)c1 [Exe. 017] | 5.55 |  | 
8.29 | 7.71 | 7.47 |  | O=C(Nc1cc(F)cc(Oc2ccnc(NC(=O)C3CC3)c2)c1)Nc1ccc(Cl)c(C(F)(F)F)c1 [Exe. 024] | 5.37 |  | 
7.68 | 6.41 | 7.90 |  | CC1(C(=O)Nc2cc(Oc3ccc(NC(=O)Nc4ccc(Cl)c(C(F)(F)F)c4)cc3F)ccn2)CC1 [Exe. 028] | 5.60 |  | 
8.14 | 8.00 | 8.41 |  | O=C(Nc1ccc(Cl)c(C(F)(F)F)c1)Nc1ccc(Oc2ccnc(NC(=O)C3CC3)c2)cc1F [Exe. 029] | 6.10 |  | 
7.60 | 7.47 | 7.84 |  | Cc1cc(NC(=O)Nc2ccc(Cl)c(C(F)(F)F)c2)ccc1Oc1ccnc(NC(=O)C2CC2)c1 [Exe. 031] | 5.89 |  | 
8.03 | 8.33 | 7.99 |  | O=C(Nc1cccc(OC(F)(F)F)c1)Nc1ccc(Oc2ccnc(NC(=O)C3CC3)c2)cc1F [Exe. 034] | 6.66 |  | 
8.05 | 8.03 | 8.11 |  | CC(F)(F)c1cc(F)cc(NC(=O)Nc2ccc(Oc3ccnc(NC(=O)C4CC4)c3)cc2F)c1 [Exe. 035] | 6.59 |  | 
 | 8.24 | 8.08 |  | Cc1cc(Oc2ccnc(NC(=O)C3CC3)c2)ccc1NC(=O)Nc1cc(C(C)(F)F)ccc1F [Exe. 198] | 6.13 |  | 
 | 6.49 | 7.94 |  | O=C(Nc1cccc(C(F)(F)F)c1)Nc1cnc(Oc2ccnc(NC(=O)C3CC3)c2)c(F)c1 [Exe. 201] | 6.62 |  | 
 | 6.61 | 7.90 |  | CC(F)(F)c1ccc(F)c(NC(=O)Nc2cnc(Oc3ccnc(NC(=O)C4CC4)c3)c(F)c2)c1 [Exe. 202] | 7.18 |  | 
 | 7.76 | 8.06 |  | O=C(Nc1ccc(F)c(C2CC2)c1)Nc1ccc(Oc2ccnc(NC(=O)C3CC3)c2)cc1F [Exe. 222] | 6.31 |  | 
 | 8.05 | 8.16 |  | Cc1ccc(Oc2ccnc(NC(=O)C3CC3)c2)cc1NC(=O)Nc1ccc(F)c(C(F)(F)F)c1 [Exe. 223] | 5.46 |  | 
 | 7.96 | 8.04 |  | Cc1ccc(Oc2ccnc(NC(=O)C3CC3)c2)cc1NC(=O)Nc1cccc(C(F)(F)F)c1 [Exe. 226] | 5.45 |  | 
 | 6.43 | 7.78 |  | CN1CCC(C(=O)Nc2cc(NC(=O)Nc3ccc(Oc4ccnc(NC(=O)C5CC5)c4)c(F)c3)cc(C(F)(F)F)c2)CC1 [Exe. 242] | 5.33 |  | 

Continued, compound first:

Compound | pIC50 (B-Raf kinase) | pIC50 (pERK in MDA-MB-231 cells; [2]) | pIC50 (KDR kinase (790-1356 AA)) | pIC50 (pERK in MDA-MB-231 cells; MDA-MB-231 cells, read-out: MDA-MB-231 pERK IC50) | pIC50 (PLC-PRF-5 cells; [1]) | pIC50 (PLC-PRF-5 cells; PLC-PRF-5, read-out: PLC-PRF-5 cell proliferation IC50) | pIC50 (pERK in MDA-MB-231 cells; Homo sapiens, MDA-MB-231, read-out: MDA-MB-231 pERK IC50)
O=C(Nc1ccc(Oc2cc(NC(=O)C3CC3)ncn2)cc1)Nc1ccc(Cl)c(C(F)(F)F)c1 [Exe. 007] | 7.61 | 7.34 | 8.24 |  | 5.14 |  | 
O=C(Nc1ccc(Oc2cc(NC(=O)C3CC3)ncn2)c(F)c1)Nc1ccc(Cl)c(C(F)(F)F)c1 [Exe. 008] | 7.60 | 6.91 | 8.24 |  | 5.34 |  | 
O=C(Nc1ccc(Cl)c(C(F)(F)F)c1)Nc1ccc(Oc2cc(NC(=O)C3CC3)ncn2)cc1F [Exe. 009] | 7.59 | 7.69 | 8.05 |  | 5.44 |  | 
O=C(Nc1cnc(Oc2ccnc(NC(=O)C3CC3)c2)c(Cl)c1)Nc1ccc(Cl)c(C(F)(F)F)c1 [Exe. 019] | 7.74 | 6.76 | 7.65 |  | 6.08 |  | 
O=C(Nc1ccc(Oc2ccnc(NC(=O)C3CC3)c2)nc1)Nc1ccc(Cl)c(C(F)(F)F)c1 [Exe. 020] | 7.71 | 6.54 | 8.24 |  | 5.70 |  | 
O=C(Nc1ccc(Cl)c(C(F)(F)F)c1)Nc1ccc(Oc2ccnc(NC(=O)C3CC3)c2)cn1 [Exe. 021] | 7.61 | 7.99 | 8.12 |  | 6.22 |  | 
O=C(Nc1ccc(Oc2ccnc(NC(=O)C3CC3)c2)c(F)c1)Nc1ccc(Cl)c(C(F)(F)F)c1 [Exe. 022] | 8.44 |  | 8.37 | 7.71 | 5.77 |  | 
Cc1cc(Oc2ccnc(NC(=O)C3CC3)c2)ccc1NC(=O)Nc1ccc(Cl)c(C(F)(F)F)c1 [Exe. 023] | 7.82 | 8.16 | 7.98 |  | 5.38 |  | 
O=C(Nc1cnc(Oc2ccnc(NC(=O)C3CC3)c2)c(F)c1)Nc1ccc(Cl)c(C(F)(F)F)c1 [Exe. 025] | 8.04 | 7.15 | 7.83 |  | 6.43 |  | 
Cc1ccc(Oc2ccnc(NC(=O)C3CC3)c2)cc1NC(=O)Nc1ccc(Cl)c(C(F)(F)F)c1 [Exe. 030] | 7.74 | 7.63 | 7.91 |  | 5.55 |  | 
CN1CCN(Cc2cc(NC(=O)Nc3ccc(Oc4ccnc(NC(=O)C5CC5)c4)cc3)cc(C(F)(F)F)c2)CC1 [Exe. 064] | 8.34 |  | 7.92 |  | 6.21 |  | 
Cc1cc(Oc2ccnc(NC(=O)C3CC3)c2)ccc1NC(=O)Nc1cc(F)cc(C(C)(F)F)c1 [Exe. 197] |  | 7.85 | 8.24 |  | 5.48 |  | 
Cc1cc(Oc2ccnc(NC(=O)C3CC3)c2)ccc1NC(=O)Nc1ccc(F)c(C(C)(F)F)c1 [Exe. 200] |  | 8.26 | 8.00 |  | 5.50 |  | 
CN(c1ccnc(NC(=O)C2CC2)c1)c1ccc(NC(=O)Nc2cccc(C(F)(F)F)c2)c(F)c1 [Exe. 203] |  | 7.21 | 7.79 |  | 6.27 |  | 
O=C(Nc1cccc(C(F)(F)F)c1)Nc1ccc(Nc2ccnc(NC(=O)C3CC3)c2)cc1F [Exe. 204] |  | 7.14 | 8.03 |  | 5.73 |  | 
N#Cc1ccc(NC(=O)Nc2ccc(Oc3ccnc(NC(=O)C4CC4)c3)cc2F)cc1C(F)(F)F [Exe. 206] |  |  | 7.84 |  |  | 5.78 | 8.09
Cc1ccc(NC(=O)Nc2ccc(Oc3ccnc(NC(=O)C4CC4)c3)cc2F)cc1C(F)(F)F [Exe. 207] |  | 8.08 | 7.99 |  | 7.15 |  | 
O=C(Nc1cncc(C(F)(F)F)c1)Nc1ccc(Oc2ccnc(NC(=O)C3CC3)c2)cc1F [Exe. 213] |  | 8.14 | 7.97 |  | 7.10 |  | 
O=C(Nc1ccc(Oc2ccnc(NC(=O)C3CC3)c2)cc1F)Nc1cc(OC(F)(F)F)ccc1F [Exe. 214] |  | 7.94 | 8.03 |  | 6.74 |  | 
Cc1ccc(Oc2ccnc(NC(=O)C3CC3)c2)cc1NC(=O)Nc1ccc(Cl)c(C(C)(F)F)c1 [Exe. 228] |  | 7.92 | 7.83 |  | 5.48 |  | 
Cc1ccc(Oc2ccnc(NC(=O)C3CC3)c2)cc1NC(=O)Nc1ccc(F)c(C(C)(F)F)c1 [Exe. 229] |  | 8.16 | 7.87 |  | 5.50 |  | 
Cc1cc(NC(=O)Nc2cc(F)cc(C(C)(F)F)c2)ccc1Oc1ccnc(NC(=O)C2CC2)c1 [Exe. 233] |  | 7.73 | 8.09 |  | 6.25 |  | 
O=C(Nc1cc(-c2cn[nH]c2)cc(C(F)(F)F)c1)Nc1ccc(Oc2ccnc(NC(=O)C3CC3)c2)c(F)c1 [Exe. 238] |  | 7.24 | 7.81 |  | 5.65 |  | 
O=C(Nc1cc(NC(=O)[C@@H]2CCCN2)cc(C(F)(F)F)c1)Nc1ccc(Oc2ccnc(NC(=O)C3CC3)c2)c(F)c1 [Exe. 240] |  | 7.57 | 7.72 |  | 5.98 |  | 
